One assay concerns 14‐3‐3σ/ERα complex. As to the kind of experiment: HDX‐MS of 14‐3‐3σ/ERα complex with and without FC‐A. It is filed as binding. The protocol:
(§1) Maximally deuterated samples were analyzed in triplicate.
(§2) Eluted peptides were directly infused into the mass spectrometer. Mobile phases were kept on ice.
(§3) (Thermo Fisher Scientific). […] Peptides with >20 residues were excluded from analysis.

For the next assay, the system named is 14-3-3σ/ERα. The settings on record: 14-3-3:ERα:FC-A 1:1:10, 14‐3‐3 5 µM, FC‐A 50 µM, 100 mM ammonium acetate (pH 6.8), 0.5% DMSO; 3 replicates. The protocol: (§4) LC‐MS grade dimethyl sulfoxide (DMSO) was purchased from Fisher Scientific. Lypholized ERα581‐595 15mer peptide (Ac‐[…](pT)V‐COOH, Synpeptide Ltd) and lypholized LRRK2_928‐942 15mer peptide (Ac‐NLQRHSN(pS)LGPIFDH‐CONH2, Synpeptide Ltd) were diluted into 100 mM ammonium acetate to make peptide stocks of 1 mM and stored at ‐20 °C prior to use. Fusicoccin A (FC‐A) was provided as a gift from Yusuke Higuchi. It was obtained as a metabolite of wildtype Phomopsis amygdali and genetically modified Phomopsis amygdali Niigata‐2 as reported previously^[ [62] ^] FC‐A stocks were stored in 100% DMSO at […] at ‐80 °C. 14‐3‐3 was buffer exchanged into 100 mM ammonium acetate (pH 6.8) using a 10 kDa molecular weight cut‐off Amicon Ultra centrifugal filter (Merck Millipore) and stored at ‐80 °C prior to use. To form the 14‐3‐3/ERα complex, 14‐3‐3 (5 µM) was incubated with ERα (1:1 ratio) in the presence and absence of FC‐A (50 µM) (1:1:10 ratio) for 10 min on ice or at 10 min, 5 h or 24 h at room temperature to mimic HDX conditions (Figure S16, Supporting Information). To form the 14‐3‐3/LRRK2 complex, 14‐3‐3 (5 µM) was incubated with LRRK2 (1:2 ratio) in the presence and absence of FC‐A (50 µM) (1:2:10 ratio). 14‐3‐3 binding ratios were optimized to enable single and double‐bound complex formation. 14‐3‐3 protein complexes were directly infused into the mass spectrometer. […]

In assay [1] the test system is 14‐3‐3/LRRK2 complex. As to the kind of experiment: Native MS of 14‐3‐3σ/LRRK2 with FC‐A. It is filed as binding. To be noted: 14‐3‐3 5 µM, LRRK2 1:2 ratio, FC‐A 50 µM (1:2:10); Figure S14e; proposed explanation of HDX protection. Here is the method: as §4
The test system of assay [2] is 14‐3‐3/LRRK2 complex. The settings on record: HDX‐MS, 14‐3‐3σ 100 µM, LRRK2 200 µM, FC‐A 1 mM.
Protocol: To form the 14‐3‐3/LRRK2 complex, 14‐3‐3σ in 25 mM HEPES, 200 mM NaCl, and 10 mM MgCl2 pH 8.0 (100 µM) was incubated with LRRK2 (200 µM) for 10 min on ice. To form the stabilized complex, 14‐3‐3σ (100 µM) was incubated with LRRK2 (200 µM) and FC‐A (1 mM) for 10 min on ice. Control incubations with 14‐3‐3σ (100 µM) in isolation were also performed. A final concentration of 10% DMSO was used for all experiments.
Deuterium labelling was carried out by diluting 14‐3‐3, 14‐3‐3/ERα, 14‐3‐3/ERα/FC‐A, 14‐3‐3/LRRK2 and 14‐3‐3/LRRK2/FC‐A tenfold with 100 mM ammonium acetate 99.9% D2O pD 7.2 and incubating for 10 min, 5 h, and 24 h at room temperature. The reaction was quenched by removal of 50 µL protein complex at each time‐point and adding 30 µL 4 M urea, 200 mM potassium phosphate buffer, pH 2.4, followed by flash freezing in liquid nitrogen and stored at ‐80 °C. […] Each time point was analysed in triplicate by LC‐MS with the exception of the 10‐min timepoint for LRRK2, analysed in duplicate. Non‐deuterated control samples were analysed in triplicate by LC‐MS for ERα complexes and duplicate for LRRK2 complexes.
Maximally deuterated samples were prepared by buffer exchanging 14‐3‐3 into 100 mM ammonium acetate 99.9% D2O pD 7.2 at 20 °C using a 10 kDa molecular weight cut‐off Amicon Ultra centrifugal filter (Merck Millipore). […] Maximally deuterated samples were analyzed in triplicate. […]
The test system of a further assay is 14‐3‐3/ERα. To be noted: cited from earlier work. The source says:
(§5) Overall, we have highlighted the usefulness of applying HDX‐MS to characterize molecular glues. […] This information was captured on minute‐hour HDX‐MS timescales; however, it is important to optimize HDX‐MS timescales when applying this method to study alternate protein systems. Indeed, shorter timescales might be preferential to capture the most valuable information.

Assay [3] has as its system 14-3-3•ERα protein complex. To be noted: ref PDB 4JDD, cited from earlier work. The source says: (§6) Top: Insert of the amphipathic binding groove of 14-3-3 showing binding of FC-A (green) to the 14-3-3•ERα complex (pink) (PDB 4JDD). 14-3-3σ residues involved in binding FC-A and ERα are labelled in grey. […] For illustrati ...
Another assay deals with 14-3-3•LRRK2 complex. The settings on record: Fig. S3; protein partner occupies the FC-A binding site; ref PDB 5MY9; cited from earlier work.
Source text: as §6

The next assay relates to 14‐3‐3ζ /E6 oncoprotein. To be noted: crystallography; cited from earlier work.
A further assay has as its system 14‐3‐3σ. The assay can be described thus: HDX‐MS of 14‐3‐3σ with and without ERα or LRRK2 peptide. The assay is classed as binding. The settings on record: for protection of 14‐3‐3σ from deuterium exchange upon peptide binding: 14‐3‐3σ 100 µM, ERα 100 µM or LRRK2 200 µM, diluted tenfold into 100 mM ammonium acetate 99.9% D2O pD 7.2, room temperature, 10 min, 5 h, 24 h, 10% DMSO, n = 3 (LRRK2 10 min: duplicate); for protection of 14‐3‐3σ from deuterium exchange at H8 upon peptide binding: H8, located distally from the binding groove. Here is the method:
as §1, §2, §3

The subject of assay [4] is 14-3-3σ. As to the kind of experiment: Native MS of 14‐3‐3σ with ERα. The assay is classed as binding. To be noted: 14‐3‐3 5 µM, 1:1 ratio, 100 mM ammonium acetate (pH 6.8), 0.5% DMSO, absence of FC-A; 3 replicates. Here is the method:
as §4

The target of assay [5] is 14‐3‐3. The settings on record: binary complex, without FC‐A; read-out: Kd for the binary complex 14‐3‐3/ERα; cited from earlier work.
Source text: as §5

For assay [6], the system named is 14‐3‐3. To be noted: FRET; cited from earlier work.
The subject of assay [7] is 14‐3‐3. To be noted: cited from earlier work.
For assay [8], the target named is T1, 14-3-3σ (UniProt P31947 1-248).
T1 construct: 14-3-3 protein sigma, full length
T1 sequence (looked up): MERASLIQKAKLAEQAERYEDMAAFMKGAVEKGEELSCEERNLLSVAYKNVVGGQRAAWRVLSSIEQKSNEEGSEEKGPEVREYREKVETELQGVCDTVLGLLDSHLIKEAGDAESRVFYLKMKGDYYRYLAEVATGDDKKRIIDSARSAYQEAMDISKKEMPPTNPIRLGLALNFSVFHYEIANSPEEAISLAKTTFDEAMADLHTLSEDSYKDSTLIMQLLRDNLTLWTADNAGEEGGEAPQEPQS
As to the kind of experiment: HDX-MS; 14-3-3σ (100 µM) incubated with ERα peptide (100 µM) or LRRK2 peptide (200 µM), with or without FC-A (1 mM), 10 min on ice, in 25 mM HEPES, 200 mM NaCl, 10 mM MgCl2 pH 8.0, 10% DMSO; diluted tenfold in 100 mM ammonium acetate 99.9% D2O pD 7.2; labelled 10 min, 5 h and 24 h at room temperature; deuterium uptake read on 14-3-3σ peptides (pepsin/nepenthesin-2). To be noted: both partners purified.

“Also recorded” adds a separate entry of the source. Non-standard residues stand in square brackets, D forms with d. pT = C[C@@H](OP(=O)(O)O)[C@H](N)C(=O)O

As for `C=CC(C)(C)OC[C@H]1O[C@H](O[C@@H]2C3=C([C@H](C)COC(C)=O)C[C@H](O)[C@]3(C)/C=C3/[C@@H](COC)CC[C@H]3[C@@H](C)[C@H]2O)[C@H](O)[C@@H](OC(C)=O)[C@@H]1O` [FC‐A, Fusicoccin A], the “additional protection from deuterium exchange of 14‐3‐3σ/ERα upon FC‐A addition” value with 14‐3‐3σ/ERα complex (HDX‐MS, 14‐3‐3σ 100 µM, ERα 100 µM, FC‐A 1 mM, diluted tenfold into D2O buffer pD 7.2, room temperature, 10 min, 5 h, 24 h, 10% DMSO, n = 3) is “additional protection was observed in several peptides; also recorded: increased protection on H3, H7 and H9; also recorded: protection toward the N‐terminus of H3 and H5 between residues 37–45 and 117–122; also recorded: between residues 85–100 on H4 and residues 26–36 on H2; also recorded: additional protection from deuterium labelling”. Also, the “closure of H9 upon FC‐A addition to 14‐3‐3σ/ERα” value in the assay with 14‐3‐3σ/ERα complex (HDX‐MS, pD 7.2, room temperature) is listed as “Evidence of this H9 closure was not observed”. In addition, in the assay with 14‐3‐3σ/ERα complex (difference plot over all time points (10 min, 5 h, 24 h)), the “peptides with main differences in HDX uptake, 14‐3‐3σ/ERα vs 14‐3‐3σ/ERα/FC‐A” value was “peptides 23–35, 45-51, 71-73, 92-114 and 120-122”. Further, in the assay on 14-3-3σ/ERα, the “shift of binding equilibrium upon FC-A addition, native MS” value is recorded as “the binding equilibrium is shifted to the fully stabilized ternary complex”. Also, in the assay with 14‐3‐3/LRRK2 complex [1], the “interaction between FC‐A and the 14‐3‐3/LRRK2 complex” value was “low affinity interaction”. Moreover, the “additional protection of 14‐3‐3/LRRK2 in regions of the LRRK2 binding interface upon FC‐A addition” value in the assay with 14‐3‐3/LRRK2 complex [2] (diluted tenfold into D2O buffer pD 7.2, room temperature, 10% DMSO) is listed as “No additional protection was observed in regions involved in the LRRK2 binding interface suggesting no stabilization effect”. Further, the “level of protection of residues 37 to 45 (FC‐A binding region) in 14‐3‐3/LRRK2 upon FC‐A addition” value with 14‐3‐3/LRRK2 complex [2] (pD 7.2, room temperature) is listed as roughly 8%. In the assay on 14‐3‐3/ERα (FC‐A), the “increase of 14‐3‐3/ERα affinity by the molecular glue” value is reported as greater than 10 fold. Also, in assay [3] (Fig. S3, PDB 4JDD), the “stabilization of 14-3-3•ERα complex by FC-A” value is “binds and stabilizes”. For the same molecule, the “14-3-3σ/ERα residues interacting with FC-A” value in assay [3] (Fig. S3) was “N42, D215 and K122 interact with FC-A”. Besides, the “stabilization of 14-3-3•LRRK2 complex by FC-A” value in the assay on 14-3-3•LRRK2 complex is “does not stabilize”. Also, in the assay on 14‐3‐3ζ /E6 oncoprotein, the “conformational change of 14‐3‐3ζ upon addition of FC‐A” value is “closure of H9”.

In the case of “Ac‐KYYITGEAEGFPA(pT)V‐COOH (Ac-KYYITGEAEGFPA[pT]V-OH) [ERα, lypholized ERα581‐595 15mer peptide, phosphorylated mimetic of estrogen receptor α]”, the “protection of 14‐3‐3σ from deuterium exchange upon peptide binding” value in the assay with 14‐3‐3σ was “Protection from deuterium labelling occurs; also recorded: peptides located in helices H3, H7 and H9 showed significant levels of protection after 24 h”. In the assay with 14‐3‐3σ (pD 7.2, room temperature), the “protection of 14‐3‐3σ from deuterium exchange at H8 upon peptide binding” value is recorded as “protection was also observed at H8”; the “dynamics and flexibility of 14‐3‐3 dimer interface (residues 85–100 on H4, 26–36 on H2) upon ERα binding” value is “a reduction in dynamics and protein flexibility”. In the assay with 14-3-3σ [4], the “ERα complexes with 14-3-3 observed by native MS” value was “singly and doubly bound ERα is observed in complex”. The Kd on 14‐3‐3/ERα (in the presence of FC‐A) was 100 ± 30 nM. Moreover, the Kd at 14‐3‐3 [5] was 1600 ± 300 nM.

Consider “tyrosine hydroxylase: protein partner titrated in a previous FRET study of 14‐3‐3 dimerization”, for which the “14‐3‐3 dimer stability upon titration” value with 14‐3‐3 [6] is “increased dimer stability”.

On to “Ac‐NLQRHSN(pS)LGPIFDH‐CONH2 [LRRK2, lypholized LRRK2_928‐942 15mer peptide, phosphorylated mimetic of leucine‐rich repeat kinase 2]”, for which the “protection of 14‐3‐3σ from deuterium exchange upon peptide binding” value in the assay on 14‐3‐3σ is given as “identical areas of protection were observed upon LRRK2 binding; also recorded: the level of protection decreased relative to ERα”. The “protection of 14‐3‐3σ from deuterium exchange at H8 upon peptide binding” value in the assay on 14‐3‐3σ (pD 7.2, room temperature) was “protection was also observed at H8”. The “binding affinity for 14‐3‐3 relative to ERα” value with 14‐3‐3 [7] is listed as “lower binding affinity”.

B1: LRRK2_(928-942)pS935 15mer peptide of leucine-rich repeat kinase 2 (peptide)
peptide: NLQRHSNSLGPIFDH
HELM: PEPTIDE1{[ac].N.L.Q.R.H.S.N.[O=C([C@H](COP(=O)(O)O)N[*:1])[*:2]].L.G.P.I.F.D.H.[am]}$$$$V2.0
SMILES: CC[C@H](C)[C@H](NC(=O)[C@@H]1CCCN1C(=O)CNC(=O)[C@H](CC(C)C)NC(=O)[C@H](COP(=O)(O)O)NC(=O)[C@H](CC(N)=O)NC(=O)[C@H](CO)NC(=O)[C@H](Cc1c[nH]cn1)NC(=O)[C@H](CCCNC(=N)N)NC(=O)[C@H](CCC(N)=O)NC(=O)[C@H](CC(C)C)NC(=O)[C@H](CC(N)=O)NC(C)=O)C(=O)N[C@@H](Cc1ccccc1)C(=O)N[C@@H](CC(=O)O)C(=O)N[C@@H](Cc1c[nH]cn1)C(N)=O
notes: leucine-rich repeat kinase 2, residues 928-942, phosphorylated at S935; source: synthetic peptide (Synpeptide Ltd)
With B1, the binding result with 14-3-3σ [8] is listed as “binds”.

B2: ERα_(581-595)pT594 15mer peptide of estrogen receptor α (peptide)
peptide: Ac-KYYITGEAEGFPA[pT]V-OH
notes: estrogen receptor α, residues 581-595, phosphorylated at T594 ('mode 3' C-terminal motif); source: synthetic peptide (Synpeptide Ltd)
For B2, the binding result with 14-3-3σ [8] was “binds”.
